Values after ≈ are worked out from the molar mass of the structure shown. Like-named read-outs stand apart in the source and are kept apart here.
Assays:
S. aureus ATCC 10390 [1] = assay: Agar overlay TTC assay; type: cell-based, Staphylococcus aureus; settings: macroarray copies, 15 mL agar
Description: To take advantage of the spatially-addressed nature of the macroarray format, an agar overlay assay was employed that utilizes TTC (triphenyl tetrazolium chloride) as a visualization agent (FIG. 2[…].; Lu, A. T.; Solas, D. W.; Gore, […].; Coffin, […].; Wang, […].; Look, G. C.; Campbell, […]. Antimicrob. Agents Chemother. 1998, 1447-1453. Unfortunately, during macroarray synthesis the planarity of the support is not fully maintained, and small wrinkles develop in this particular assay. This problem was solved by using an adaptation of the common Western Blot technique to copy the macroarray members from the support to fresh wrinkle-free sheets while maintaining the spatially-addressed nature. This transfer can be completed in 90 seconds and four copies can be made at a time, however to date, it is applicable only for smaller macroarrays (6 cm×6 cm, 16 spots). The full macroarray was easily divided into these dimensions. The copies allowed for replicates to be made, and the original, which cannot be used in the assay, is used to validate the compounds by LCMS. As an added feature, the sensitivity of the assay was tuned by simply changing the amount of agar applied to the array. The copies generated in the assay can also be easily used to screened against multiple organisms. […] This assay format also took advantage of the spatially addressed nature of the arrays (FIG. 2C). […]

S. aureus ATCC 10390 [2] = assay: Estimated MIC, solution-phase microdilution absorbance assay with crude macroarray spot stock solutions; type: cell-based, Staphylococcus aureus; settings: for MIC: Staphylococcus aureus, ATCC10390, 12 h
Experimental: Spots from a new 69 member chalcone macroarray as well as the three heterocyclic macroarrays prepared earlier were punched out, cleaved, and eluted with acetonitrile. The resulting solutions were concentrated to a residue that was taken up in DMSO to form 2 mM stock solutions.
From the stock solutions, microdilution assays in a 96 well plate starting at 50 μM were performed in quadruplicate. Each well contained 5 μL of the stock solution as well as 195 μL of a S. aureus culture. The turbidity of each well was measured after incubating 12 hours using a standard plate reader. Active compounds can be further diluted and the assay repeated.
To acquire more quantitative antibacterial activity data about our compounds and verify our on-support assay results, we performed solution-phase absorbance assays that provided estimates of the minimum inhibitory concentration (MIC) of each macroarray member against S. aureus. Stock solutions (ca. 2 mM) were generated by cleaving and eluting 198 individual compounds from chalcone (3) and heterocyclic macroarrays (5, 7, and 8). […] The good overall purities of the crude macroarray compounds allowed for reasonable estimations of MICs.
For estimated MIC determination, DMSO was added to the dried compound residue obtained from a single spot to afford ca. 100 μL of a 2 mM stock solution. Aliquots (5 μL) of these solutions were added to a 96-well plate, followed by 195 μL of diluted S. aureus 10390 (10^6 CFUs/mL) to yield ca. 50 μM final concentrations. The plates were swirled for 1 h to ensure compound dissolution, incubated for 12 h at 37° C., and the absorbance at 595 nm was recorded using a plate reader. […] Actual MIC values were determined for lead compounds resynthesized in solution using an analogous procedure with solutions of known concentration (see).
Preparation of spot samples and controls. An aliquot of DMSO (ca. 100 μL depending on the loading of the parent hydroxyacetophenone) was added to the dried compound residue obtained after TFA cleavage and elution from a single spot. This afforded a 2.0 mM “spot stock” solution for each spot. A small aliquot of each “spot stock” solution was saved for subsequent LC-MS analysis.
For estimated MIC screens, 5.0 μL portions of the “spot stock” solutions were added to the appropriate wells in a sterile, polystyrene 96-well plate to yield ca. 50 μM solutions (dependent on the initial loading of hydroxyacetopheneone and compound purity). To the positive and negative control wells, 5.0 μL of DMSO were added (positive controls contained bacteria but no compound, while negative controls had neither compound nor bacteria). All estimated MIC assays were performed in quadruplicate. Note: the MIC value is defined as the lowest concentration where no bacterial growth occurs.
Representative estimated MIC assay procedure. This assay procedure is based in part on the method reported by Strøm et al.^xiii A 400 μL portion of overnight S. aureus 10390 culture was diluted with 100 mL of sterile LB broth to give ca. 10^6 CFUs per mL. Aliquots (195 μL) of this solution were added to all of the wells in a sterile 96-well plate (except for the negative control wells; 195 μL of sterile LB broth were added to these wells). The plates were placed on an orbital shaker table and gently swirled for 1 h to ensure compound dissolution, and then incubated (without shaking) for 12 h at 37° C. The absorbance at 595 nm was recorded using a plate reader.
The original “spot stock” solutions of these compounds were diluted with DMSO to give ca. 25 and 13 μM final concentrations and tested for inhibitory activities using the procedure described above.

O=C(/C=C/c1cc(C(F)(F)F)cc(C(F)(F)F)c1)c1cccc(O)c1 [Compound 4Bv, 3′-hydroxy-3,5-bis(trifluoromethyl)chalcone]
relative activity in agar overlay TTC assay (S. aureus ATCC 10390 [1]): most active | inhibition of S. aureus at the 12.5 μM level (S. aureus ATCC 10390 [2]; 12.5 μM, macroarray stock solutions diluted four fold): complete inhibition | MIC (S. aureus ATCC 10390 [2]; Table 2, serial dilution of stock solutions obtained by SPOT-synthesis, read-out: estimated MIC range): 6.25 to 12.5 µM (≈ 2.25 to 4.5 µg/mL) | MIC (S. aureus ATCC 10390 [2]; Table 3, serial dilution of spot stock solutions of crude macroarray compounds, read-out: S. aureus Estimated MIC range): < 12.5 µM

— patent publication US8227616B2, “Cyanopyridine antibacterial agents and methods of use thereof” (Wisconsin Alumni Research Foundation, priority 2006, dated 2012)
